Results as given in US10596296B2, “Heparan sulphates” (Agency for Science, Technology and Research, priority 2014, dated 2020).
Entries after “also recorded” stand apart in the source; their conditions may differ. One block for each substance: values may come before it.

How the values were obtained:
[1] = tested on: TGF-β1 signaling (pSMAD2, pSMAD3) in hMSCs; assay: Western blotting of pSMAD2/pSMAD3 in hMSCs treated with TGF-β1 and GAG; format: cell-based, human; details: for pSMAD2 and pSMAD3 levels: TGF-β1 1 ng/ml pre-incubated with 10 μg/ml GAG, 6 h
Method: Primary hMSCs (Lonza) were isolated from the bone marrow mononuclear cells of a young healthy adult human donor by plastic adherence and characterized as previously described (30,31). The adherent cells were maintained in a basal media consisting of DMEM-low glucose (1000 mg/l, DMEM-LG) supplemented with 10% fetal calf serum, 100 U/ml penicillin, 100 μg/ml streptomycin and 2 mM L-glutamine, and cultured under standard conditions at 37° C. and 5% CO2 in a humidified atmosphere. Media replacement was every three days. Cells were detached with 0.125% trypsin/Versene (pH 7.0) upon reaching 75-80% confluence, and re-plated at a density of 3,000 cells/cm^2 under the same culture conditions. All experiments were carried out with cells at passage 5.
Human MSCs were cultured in 6-well plates in basal media for 24 h at a density of 10,000 cells/cm^2. TGF-β1 treatments were then prepared at either 1 ng/ml or 5 ng/ml alone or in the presence of either 10 μg/ml or 40 μg/ml of full length heparin, or 1 ng/ml of TGF-β1 with 10 μg/ml size-fractionated or selectively desulfated heparin, HS^PM, HS16+ or HS16−, and incubated at room temperature for 10 min before being added to the cells. Latent TGF-β1 (LTGF-β1) treatments were similarly prepared at 3.3 ng/ml alone or with 10 μg/ml of the various GAGs described above. For inhibitor studies, the cells were pre-treated for 30 min with 10 μM SB431542 (Sigma-Aldrich) or DMSO before treatment with TGF-β1. […] Samples were then immunoblotted with antibodies against SMAD2/3 (#3102, Cell Signaling), phosphorylated SMAD2 (pSMAD2, #3108, Cell Signaling), phosphorylated SMAD3 (pSMAD3, #9520, Cell Signaling) and actin (MAB1501R, Millipore). Densitometry was carried out using Quantity One software (version 4.6.6, Bio-Rad).

TGF-β1 [2] = target: T1, TGF-β1 (Homo sapiens, UniProt P01137); assay: GAG-binding plate assay; details: wells coated with 5 μg/ml GAG
T1 construct: full length mature TGF-β1 is 112 amino acids in length
T1 sequence (P01137 279-390 limits assumed): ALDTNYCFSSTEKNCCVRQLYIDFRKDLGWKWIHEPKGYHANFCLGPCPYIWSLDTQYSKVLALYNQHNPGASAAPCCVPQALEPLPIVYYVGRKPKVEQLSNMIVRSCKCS
Method: GAGs are immobilized in each well and then challenged with TGF-β1 according to the manufacturer's instructions. Briefly, triplicate wells are first pre-coated with 5 μg/ml of heparin, HS^PM, HS16^+ve or HS16^−ve in standard assay buffer (SAB: 100 mM NaCl, 50 mM sodium acetate, 0.2% v/v Tween 20, pH 7.2), and then incubated overnight at room temperature. The plates are next washed carefully three times with SAB, blocked with 250 μl of blocking solution (0.4% w/v fish skin gelatine, Sigma-Aldrich, in SAB) and incubated for 1 h at 37° C. TGF-β1 was then dissolved in blocking solution at a concentration of 100, 200, or 400 ng/ml. The plates are washed three times with SAB and each dilution of protein (200 μl) is dispensed into triplicate wells and incubated for 2 h at 37° C., rinsed with SAB and 200 μl of 750 ng/ml monoclonal mouse anti-TGF-β1 antibody (MAB2401, R&D Systems) added in blocking solution. Plates are then incubated for 1 h at 37° C., washed with SAB, and 200 μl of 1 μg/ml polyclonal goat anti-mouse biotinylated antibody (ab6788, Abcam) added in blocking solution. Again, plates are incubated for 1 h at 37° C., washed with SAB, and 200 μl of 220 ng/ml ExtrAvidin AP (Sigma-Aldrich) is added in blocking solution, incubated for 30 min at 37° C., and then rinsed with SAB. Finally, 200 μl of development reagent (SigmaFAST p-Nitrophenyl phosphate, Sigma-Aldrich) is added, incubated at 37° C. for 40 min and read at 405 nm within 1 h.
To determine the ability of TGF-β1 to bind to heparin, we utilized positively-charged GAG-binding plates (Iduron) as a capture substrate. GAGs were immobilized in each well and then challenged with TGF-β1 according to the manufacturer's instructions. Briefly, triplicate wells were first pre-coated with 5 μg/ml of full length heparin, size-fractionated heparin (dp14, 16, 18, 20, 22 and 24) or selectively […] heparin prepared in standard assay buffer (SAB: 100 mM NaCl, 50 mM sodium acetate, 0.2% v/v Tween 20, pH 7.2), and then incubated overnight at room temperature. The plates were next washed carefully three times with SAB, blocked with 250 μl of blocking solution (0.4% w/v fish skin gelatine, Sigma-Aldrich, in SAB) and incubated for 1 h at 37° C. TGF-β1 was then dissolved in blocking solution at a concentration of 100, 200, or 400 ng/ml. The plates were washed three times with SAB and each dilution of protein (200 μl) was dispensed into triplicate wells and incubated for 2 h at 37° C., rinsed with SAB and 200 μl of 750 ng/ml monoclonal mouse anti-TGF-β1 antibody (MAB2401, R&D Systems) added in blocking solution. […] Finally, 200 μl of development reagent (SigmaFAST p-Nitrophenyl phosphate, Sigma-Aldrich) was added, incubated at 37° C. for 40 min and read at 405 nm within 1 h.

TGF-β1 [3] = target: T1, TGF-β1; assay: SPR competitive binding: soluble GAG competes for TGF-β1 against heparin-coated chip; details: for ability to competitively inhibit TGF-β1 binding to immobilized heparin: 200 nM TGF-β1 pre-incubated with 5 or 10 μg GAG
Method: Biotinylated heparin was prepared based on the protocol reported by Hernaiz et al. (33). Briefly, 20 mg of heparin was filter-sterilized (0.22 μm) in 1 ml of water and incubated with 8.6 μmol of N-hydroxysuccinimide-biotin (NHS-biotin) (Pierce) in 20 μl of dimethyl sulfoxide (DMSO) for 2 h at 4° C. The biotinylated heparin was then extensively dialyzed (7000 MWCO) to remove unreacted biotin. Immobilization of the biotinylated heparin onto a streptavidin (SA) sensor chip (GE Healthcare) was carried out using the immobilization wizard on the Biacore T100 (GE Healthcare) with a targeted immobilization level of approximately 40 response units (RUs). HBS-EP running buffer (10 mM HEPES, 150 mM NaCl, 3.0 mM EDTA, 0.05% (v/v) Tween 20, pH 7.4) was used for the immobilization.
TGF-β1-heparin interactions were effected by preparing a series of TGF-β1 protein samples (50 to 800 nM final concentration) diluted in HBS-EP-0.1 running buffer (0.1% instead of 0.05% (v/v) Tween 20). […] The sample solutions were then injected over the heparin-coated chip at a flow rate of 30 μl/min for 120 s, with HBS-EP-0.1 being subsequently passed over the chip for a further 1200 s to monitor TGF-β1 dissociation. After dissociation, the sensor surface on the chip was regenerated by 2 washes of 2 M NaCl injected at 30 μl/min for 60 s. The response was measured as a function of time (sensogram) at 25° C. The maximum binding response for each condition was normalized to the response obtained from TGF-β1 alone.

TGF-β1 [4] = target: T1, TGF-β1; assay: Differential scanning fluorimetry (DSF) of TGF-β1; format: binding
Method: DSF was performed on a 7500 Fast Real PCR System (software version 1.4, Applied Biosystems), as described previously (34,35). TGF-β1 (2.5 μM) was tested with or without heparin (25 μM). To facilitate the melting of TGF-β1, 10 mM of dithiothreitol (DTT) was added to the reaction mix. Experiments were run as previously described (34). First derivatives of the melting curves were calculated using Origin 7 (OriginLab Corp.) to determine the melting temperature of TGF-β1 under the various conditions.

[5] = tested on: chondrogenic differentiation of hMSCs; assay: Wet weight of chondrogenic micromass pellets; format: cell-based, human; details: 10 ng/mL TGF-β1 vs control; days 3, 7, 14 and 21
Method: (§1) In order to assess the effects of HS16+ve on the chondrogenic differentiation of hMSCs in vitro, it was first necessary to establish the effects of TGF-β1 alone. Chondrogenic differentiation was carried out using a modified micromass culture system. [Zhang, L., et al., Chondrogenic differentiation of human mesenchymal stem cells: a comparison between micromass and pellet culture systems. Biotechnol Lett, 2010. 32(9): p. 1339-1346.]. Briefly, passage 4 hMSCs were harvested and resuspended in chemically defined chondrogenic media (PT-3003, Lonza, MD, USA) at 2×10^7 cells/mL. Droplets of 12.5 μL were then seeded into the middle of each well in a 24-well plate and left to adhere at 37° C. for 2 h, after which, 500 μL of chondrogenic media supplemented with either 1 or 10 ng/mL of TGF-β1 (100-210, PeproTech) alone or with either 5 or 10 μg/mL of heparin (Sigma-Aldrich), porcine mucosal HS (HSPM) (Celsus laboratories), HS16+ve or HS16-ve was added to each well. The cell droplets coalesced into spherical masses after 24 h. Media was changed every 3 days and the micromasses harvested on days 3, 7, 14 and 21.
Wet weights of the resulting control (Ctrl) and TGF-β1-treated (10 ng/mL) (TGF-β1) micromass pellets were taken at days 3, 7, 14 and 21 (FIG. 15).

[6] = tested on: chondrogenic differentiation of hMSCs; assay: qPCR of chondrogenic micromass pellets (Example 2); format: cell-based, human
Method: Total RNA was isolated from chondrogenic micromass pellets using TRIZOL reagent (Life Technologies, CA, USA) according to the manufacturer's protocol. Reverse transcription was carried out on 1 μg RNA using the SuperScript® VILO™ cDNA Synthesis Kit (Life Technologies) following the manufacturer's instructions, with the incubation at 42° C. being carried out for 2 h instead of 1 h. Each qPCR contained 40 ng cDNA, 1 μL TaqMan® primer-probe mix per gene, and 10 μL Taqman® Fast Universal PCR Master Mix (Life Technologies) in a final volume of 20 μL. Thermal cycling conditions were 95° C. for 20 s, followed by 45 cycles of 95° C. for 1 s and 60° C. for 20 s. Each qPCR was run in duplicate and gene expression was normalised to HPRT1 expression to obtain the ΔCt value. The average value of biological triplicates was taken. Chondrogenic micromass pellets cultured in media without GAG or TGF-β1 were used as controls (ΔΔCt). Relative expression levels for each primer set were expressed as fold changes by the 2-ΔΔCt method [Livak, K. J. and T. D. Schmittgen, Analysis of Relative Gene Expression Data Using Real-Time Quantitative PCR and the 2-ΔΔCT Method. Methods, 2001. 25(4): p. 402-408]. The following TaqMan® primer-probe assays (Life technologies) were used:
as §1
Next, hMSCs were differentiated for 21 days in the presence of 1 ng/mL TGF-β1 alone (1 TGF-β1) or in combination with 10 μg/mL of GAG (heparin, HSPM, HS16+ve or HS16−ve) or with 10 ng/mL TGF-β1 (10 TGF-β1) as a positive control.

[7] = tested on: chondrogenic differentiation of hMSCs; assay: Alcian blue staining of chondrogenic micromass pellets; format: cell-based, human
Method: as §1

[8] = 5 ng/mL and 10 ng/mL TGF-β1, 6, 12, 24 and 48 h
[9] = 10 ng/mL TGF-β1, days 3, 7, 14 and 21

reduction of TGF-β1 binding compared to fully sulfated, full-length heparin (TGF-β1 [2]): about 60%
ability to competitively inhibit TGF-β1 binding to immobilized heparin (TGF-β1 [3]): minimal effect
Substance: 2-O-desulfated heparin
pSMAD2 and pSMAD3 levels [1]: increase to levels beyond those seen in heparin-treated cells

reduction of TGF-β1 binding compared to fully sulfated, full-length heparin (TGF-β1 [2]): approximately 80%
loss of TGF-β1-binding ability (TGF-β1 [3]; 200 nM TGF-β1 with 5 or 10 μg GAG, relative to heparin): approximately 40%
Substance: 6-O-desulfated heparin
pSMAD2 and pSMAD3 levels [1]: stabilization of pSMAD levels

TGF-β1 binding to immobilized GAG (TGF-β1 [2]; TGF-β1 100, 200 or 400 ng/ml): essentially abolished
ability to competitively inhibit TGF-β1 binding to immobilized heparin (TGF-β1 [3]): abrogated
Substance: N-desulfated heparin
pSMAD2 and pSMAD3 levels [1]: did not lead to an increase in pSMAD levels

Substance: TGF-β1: transforming growth factor-β1 protein (PeproTech)
melting temperature of TGF-β1 (TGF-β1 [4]; with 10 mM DTT, without heparin): 44 °C
melting temperature of TGF-β1 alone (TGF-β1 [4]; without DTT): 66 °C
pSMAD2 signal ([1]; 1 ng/mL TGF-β1, 6, 12, 24 and 48 h): quite intense at 6 h post treatment, and started to subside from 12 h onwards
pSMAD2 signal [1, 8]: remain saturated across all the time points tested
pSMAD3 signal [1, 8]: returned to background levels by 24 h
wet weight of micromass pellets over time [5]: weight loss was less pronounced
Type II collagen transcripts ([6]; 10 ng/mL TGF-β1): only detectable in TGF-β1-treated pellets and undifferentiated hMSCs
type X collagen transcripts relative to control pellets ([6]; 10 ng/mL TGF-β1): extremely high levels
COMP expression relative to untreated control pellets [6, 9]: increased expression
SOX9 expression relative to untreated control pellets [6, 9]: increased expression
aggrecan expression relative to untreated control pellets ([6]; 10 ng/mL TGF-β1, days 7, 14 and 21): increased expression
COMP expression, high (10 ng/mL) TGF-β1 relative to low dose TGF-β1 alone ([6]; 21 days): did not significantly alter COMP expression
type X collagen expression, high TGF-β1 relative to low TGF-β1 ([6]; day 21): significant increase
GAG production by Alcian blue staining, 10 ng/mL vs 1 ng/mL TGF-β1 ([7]; 21 days): increase in GAG production and deposition; also recorded: modest increase in GAG production
GAG content by Alcian blue staining vs control pellets ([7]; day 21, 10 ng/mL TGF-β1): more GAGs
